Data from ChEMBL document CHEMBL3351833, “Synthesis and Biological Evaluation of Pyrazolo[1,5-a]pyrimidine Compounds as Potent and Selective Pim-1 Inhibitors” (ACS Med Chem Lett, 2015).

How the values were obtained:
[1] = target: Serine/threonine-protein kinase pim-2 (Homo sapiens, UniProt Q9P1W9); test: Inhibition of Pim2 (unknown origin) using luciferase-luciferin based ATP detection reagent by Kinase-Glo assay; conditions: read-out: IC50
[2] = target: Voltage-gated inwardly rectifying potassium channel KCNH2 (Homo sapiens, UniProt Q12809); test: Inhibition of human ERG expressed in CHO cells by automated patch clamp method; type: cell-based
Chain of Voltage-gated inwardly rectifying potassium channel KCNH2 (Q12809 whole entry): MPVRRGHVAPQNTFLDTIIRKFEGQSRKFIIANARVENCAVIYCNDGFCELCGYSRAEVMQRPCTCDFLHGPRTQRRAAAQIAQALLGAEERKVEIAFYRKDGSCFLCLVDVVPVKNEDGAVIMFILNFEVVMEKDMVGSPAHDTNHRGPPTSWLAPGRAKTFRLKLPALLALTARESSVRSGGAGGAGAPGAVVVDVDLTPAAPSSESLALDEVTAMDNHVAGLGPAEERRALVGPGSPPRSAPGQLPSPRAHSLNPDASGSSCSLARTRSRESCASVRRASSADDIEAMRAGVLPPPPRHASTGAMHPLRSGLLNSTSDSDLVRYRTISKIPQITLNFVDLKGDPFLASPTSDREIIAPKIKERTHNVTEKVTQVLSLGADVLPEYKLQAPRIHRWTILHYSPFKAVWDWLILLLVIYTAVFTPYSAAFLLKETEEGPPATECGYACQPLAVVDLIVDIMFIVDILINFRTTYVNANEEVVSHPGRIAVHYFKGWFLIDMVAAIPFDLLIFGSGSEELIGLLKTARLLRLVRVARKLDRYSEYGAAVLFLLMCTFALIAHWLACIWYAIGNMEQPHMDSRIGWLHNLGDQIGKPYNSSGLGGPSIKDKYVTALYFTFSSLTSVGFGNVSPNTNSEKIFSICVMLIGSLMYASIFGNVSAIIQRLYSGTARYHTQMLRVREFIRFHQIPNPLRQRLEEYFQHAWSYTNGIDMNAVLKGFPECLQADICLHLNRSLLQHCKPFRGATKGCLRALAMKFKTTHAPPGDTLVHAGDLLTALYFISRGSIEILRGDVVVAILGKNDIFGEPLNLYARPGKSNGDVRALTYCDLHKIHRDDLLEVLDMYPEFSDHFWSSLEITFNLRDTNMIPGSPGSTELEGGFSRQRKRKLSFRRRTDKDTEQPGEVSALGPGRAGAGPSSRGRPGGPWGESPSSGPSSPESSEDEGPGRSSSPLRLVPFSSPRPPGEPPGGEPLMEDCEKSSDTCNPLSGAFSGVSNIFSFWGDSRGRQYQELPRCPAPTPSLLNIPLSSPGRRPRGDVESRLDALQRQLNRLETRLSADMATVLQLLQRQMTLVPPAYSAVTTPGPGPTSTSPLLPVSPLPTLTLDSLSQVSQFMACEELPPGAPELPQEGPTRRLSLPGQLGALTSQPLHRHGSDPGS

[3] = target: T1, Receptor-type tyrosine-protein kinase FLT3 (Homo sapiens, UniProt P36888); test: Inhibition of human Flt3 (unknown origin)
T1 sequence (P36888 whole entry): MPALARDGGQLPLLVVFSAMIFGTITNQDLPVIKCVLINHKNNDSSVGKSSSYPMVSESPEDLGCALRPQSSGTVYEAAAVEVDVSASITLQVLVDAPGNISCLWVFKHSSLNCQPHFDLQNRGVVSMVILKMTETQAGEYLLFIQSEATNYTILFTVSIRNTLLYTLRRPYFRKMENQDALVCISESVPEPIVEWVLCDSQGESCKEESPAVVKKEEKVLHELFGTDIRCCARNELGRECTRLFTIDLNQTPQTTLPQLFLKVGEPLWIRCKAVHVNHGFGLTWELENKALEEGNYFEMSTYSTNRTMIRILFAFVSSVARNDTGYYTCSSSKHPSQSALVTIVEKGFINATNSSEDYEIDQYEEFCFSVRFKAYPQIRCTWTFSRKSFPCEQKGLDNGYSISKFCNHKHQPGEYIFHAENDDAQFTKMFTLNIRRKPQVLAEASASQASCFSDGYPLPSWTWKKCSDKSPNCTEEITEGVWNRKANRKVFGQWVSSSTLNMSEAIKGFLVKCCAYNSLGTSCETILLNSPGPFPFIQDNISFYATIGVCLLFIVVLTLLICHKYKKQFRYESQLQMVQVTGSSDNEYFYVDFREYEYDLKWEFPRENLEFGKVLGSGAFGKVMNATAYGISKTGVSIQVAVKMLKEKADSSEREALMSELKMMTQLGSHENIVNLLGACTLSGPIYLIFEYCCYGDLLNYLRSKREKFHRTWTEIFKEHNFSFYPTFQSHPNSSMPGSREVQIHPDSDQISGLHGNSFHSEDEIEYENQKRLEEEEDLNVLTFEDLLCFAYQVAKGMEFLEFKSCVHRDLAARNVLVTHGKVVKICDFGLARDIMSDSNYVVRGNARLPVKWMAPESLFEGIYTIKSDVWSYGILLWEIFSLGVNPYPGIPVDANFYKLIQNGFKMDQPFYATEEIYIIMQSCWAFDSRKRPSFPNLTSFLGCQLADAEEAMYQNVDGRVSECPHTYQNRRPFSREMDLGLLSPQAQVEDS

[4] = target: Serine/threonine-protein kinase pim-1 (Homo sapiens, UniProt P11309); test: Inhibition of Pim1 (unknown origin) using luciferase-luciferin based ATP detection reagent by Kinase-Glo assay; conditions: read-out: IC50
Chain of Serine/threonine-protein kinase pim-1 (P11309 whole entry): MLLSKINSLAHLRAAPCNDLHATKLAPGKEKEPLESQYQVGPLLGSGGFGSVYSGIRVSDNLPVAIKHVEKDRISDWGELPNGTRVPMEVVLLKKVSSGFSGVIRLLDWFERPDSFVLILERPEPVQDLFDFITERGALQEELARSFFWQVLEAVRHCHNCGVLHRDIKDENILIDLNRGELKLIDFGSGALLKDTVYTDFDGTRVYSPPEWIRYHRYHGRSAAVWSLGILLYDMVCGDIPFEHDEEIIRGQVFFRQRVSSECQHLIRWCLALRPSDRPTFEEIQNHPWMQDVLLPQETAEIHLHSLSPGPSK

Chain of Serine/threonine-protein kinase pim-2 (Q9P1W9 whole entry): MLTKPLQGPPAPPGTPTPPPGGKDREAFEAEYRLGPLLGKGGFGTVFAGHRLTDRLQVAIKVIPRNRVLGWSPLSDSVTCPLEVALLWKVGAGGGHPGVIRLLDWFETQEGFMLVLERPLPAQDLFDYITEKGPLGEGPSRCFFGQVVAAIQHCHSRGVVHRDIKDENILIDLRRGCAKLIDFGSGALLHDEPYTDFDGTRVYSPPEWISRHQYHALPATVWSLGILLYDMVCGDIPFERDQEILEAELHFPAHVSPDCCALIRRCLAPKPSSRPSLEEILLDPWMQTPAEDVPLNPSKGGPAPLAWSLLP

IC50 [1] [nM] | IC50 [3] [nM] | IC50 [4] [nM] | Compound | IC50 [2] [nM]
506 | – | – | O[C@H]1CC[C@H](Nc2ccn3ncc(-c4cccc(Cl)c4)c3n2)CC1 | –
525 | 271 | – | CC(C)(O)[C@H]1CC[C@H](Nc2ccn3ncc(-c4cccc(C(F)(F)F)c4)c3n2)CC1 | > 30000
100 | – | – | N[C@H]1CC[C@H](Nc2ccn3ncc(-c4cccc(OC(F)(F)F)c4)c3n2)CC1 | –
4660 | – | – | CO[C@H]1CC[C@H](Nc2ccn3ncc(-c4cccc(C(F)(F)F)c4)c3n2)CC1 | –
4090 | – | – | CC(C)(O)[C@H]1CC[C@H](Nc2ccn3ncc(-c4cccc(OC(F)(F)F)c4)c3n2)CC1 | –
269 | 157 | – | O[C@H]1CC[C@H](Nc2ccn3ncc(-c4cccc(OC(F)(F)F)c4)c3n2)CC1 | –
282 | 53 | – | O[C@H]1CC[C@H](Nc2ccn3ncc(-c4cccc(C(F)(F)F)c4)c3n2)CC1 | –

Continued, compound first:

Compound | IC50 [1] [nM] | IC50 [3] [nM] | IC50 [4] [nM] | IC50 [2] [nM]
FC(F)(F)c1cccc(-c2cnn3ccc(NCC4CCOCC4)nc23)c1 | 1970 | – | 149 | –
O=C1CCN(c2ccn3ncc(-c4cccc(Cl)c4)c3n2)CC1 | 564 | – | 168 | –
Clc1cccc(-c2cnn3ccc(NCC4CCOCC4)nc23)c1 | 1640 | – | – | –
CO[C@H]1CC[C@H](Nc2ccn3ncc(-c4cccc(Cl)c4)c3n2)CC1 | 1020 | – | – | –
C[C@]1(O)CC[C@H](Nc2ccn3ncc(-c4cccc(Cl)c4)c3n2)CC1 | 1260 | – | – | –
C[C@]1(O)CC[C@H](Nc2ccn3ncc(-c4cccc(C(F)(F)F)c4)c3n2)CC1 | 639 | – | – | –
